Measurements published in patent publication US6395896B2, “Pyridazine derivatives, manufacturing method and related composition” (Shiseido Co., Ltd., priority 1999, dated 2002).

Experiment: Colorant stabilization effect (photostabilizer, sunlight exposure)
Set-up: key to Sunlight exposure (80 MJ) Appearance: A: No change; B: No almost change; C: Yes change; key to Sunlight exposure (80 MJ) ΔE: ΔE color difference (Lab) vs. color before sunlight exposure
Description: First of all, the photostabilization effect and appearance change of a composition in each pigment were studied by the following evaluation formulation.
Each test sample was prepared. Observation of appearance change (visual evaluation) and measurement of color difference (ΔE) were carried out in samples exposed to sunlight exposure (around 80 MJ).
Color difference was measured by Lab coordinate system with spectrophotometer. Color difference was calculated on the basis of the color before sunlight exposure. Namely, from measured value (L1,a1,b1) before sunlight exposure, color difference (ΔE) was calculated by following formula.

[1] = Red No. 227 0.0001 wt % + Yellow No. 5 0.0001 wt %, photostabilizer 0.03 wt %
[2] = Red No. 227 0.0001 wt % + Yellow No. 5 0.0001 wt %, photostabilizer 0.05 wt %
[3] = Red No. 227 0.0001 wt % + Yellow No. 5 0.0001 wt %, photostabilizer 0.1 wt %
[4] = Red No. 227 0.0001 wt % + Yellow No. 203 0.0001 wt %, photostabilizer 0.05 wt %
[5] = Red No. 227 0.0001 wt % + Yellow No. 203 0.0001 wt %, photostabilizer 0.1 wt %
[6] = Red No. 227 0.0001 wt % + Yellow No. 203 0.0001 wt %, photostabilizer 0.3 wt %
[7] = Red No. 227 0.0001 wt %, photostabilizer 0.02 wt %
[8] = Red No. 227 0.0001 wt %, photostabilizer 0.05 wt %
[9] = Red No. 227 0.0001 wt %, photostabilizer 0.1 wt %
[10] = Red No. 401 0.0001 wt % + Blue No. 1 0.00001 wt %, photostabilizer 0.03 wt %
[11] = Red No. 401 0.0001 wt % + Blue No. 1 0.00001 wt %, photostabilizer 0.05 wt %
[12] = Red No. 401 0.0001 wt % + Blue No. 1 0.00001 wt %, photostabilizer 0.1 wt %
[13] = Red No. 401 0.0001 wt % + Green No. 3 0.00001 wt %, photostabilizer 0.03 wt %
[14] = Red No. 401 0.0001 wt % + Green No. 3 0.00001 wt %, photostabilizer 0.05 wt %
[15] = Red No. 401 0.0001 wt % + Green No. 3 0.00001 wt %, photostabilizer 0.3 wt %
[16] = Red No. 401 0.0001 wt %, photostabilizer 0.05 wt %
[17] = Red No. 401 0.0001 wt %, photostabilizer 0.1 wt %
[18] = Red No. 401 0.0001 wt %, photostabilizer 0.3 wt %
[19] = Red No. 401 0.001 wt %, photostabilizer 0.03 wt %
[20] = Red No. 401 0.001 wt %, photostabilizer 0.05 wt %
[21] = Red No. 401 0.001 wt %, photostabilizer 0.1 wt %
[22] = Yellow No. 5 0.0001 wt %, photostabilizer 0.05 wt %
[23] = Yellow No. 5 0.0001 wt %, photostabilizer 0.1 wt %
[24] = Yellow No. 5 0.0001 wt %, photostabilizer 0.3 wt %
[25] = Yellow No. 5 0.001 wt %, photostabilizer 0.01 wt %
[26] = Yellow No. 5 0.001 wt %, photostabilizer 0.05 wt %
[27] = Yellow No. 5 0.001 wt %, photostabilizer 0.1 wt %
[28] = Yellow No. 203 0.0001 wt % + Yellow No. 5 0.0001 wt %, photostabilizer 0.03 wt %
[29] = Yellow No. 203 0.0001 wt % + Yellow No. 5 0.0001 wt %, photostabilizer 0.05 wt %
[30] = Yellow No. 203 0.0001 wt % + Yellow No. 5 0.0001 wt %, photostabilizer 0.1 wt %
[31] = Yellow No. 203 0.0001 wt %, photostabilizer 0.05 wt %
[32] = Yellow No. 203 0.0001 wt %, photostabilizer 0.1 wt %
[33] = Yellow No. 203 0.0001 wt %, photostabilizer 0.3 wt %
[34] = Yellow No. 203 0.001 wt %, photostabilizer 0.02 wt %
[35] = Yellow No. 203 0.001 wt %, photostabilizer 0.05 wt %
[36] = Yellow No. 203 0.001 wt %, photostabilizer 0.1 wt %

In the case of `Oc1nncc(N2CCOCC2)c1N1CCOCC1` [4,5-Dimorpholino-3-hydroxypyridazine], the “Sunlight exposure (80 MJ) Appearance” value [1] is reported as “A”, the “Sunlight exposure (80 MJ) ΔE” value [1] is reported as 0.72 and the “Sunlight exposure (80 MJ) Appearance” value [2] is reported as “A”. For the same compound, the “Sunlight exposure (80 MJ) ΔE” value [2] was 0.59, the “Sunlight exposure (80 MJ) Appearance” value [3] was “A” and the “Sunlight exposure (80 MJ) ΔE” value [3] was 0.18. For the same compound, the “Sunlight exposure (80 MJ) Appearance” value [4] was “A”, the “Sunlight exposure (80 MJ) ΔE” value [4] was 0.78 and the “Sunlight exposure (80 MJ) Appearance” value [5] was “A”. For the same compound, the “Sunlight exposure (80 MJ) ΔE” value [5] was 0.35, the “Sunlight exposure (80 MJ) Appearance” value [6] was “A” and the “Sunlight exposure (80 MJ) ΔE” value [6] was 0.14. For the same compound, the “Sunlight exposure (80 MJ) Appearance” value [7] was “A”, the “Sunlight exposure (80 MJ) ΔE” value [7] was 0.71 and the “Sunlight exposure (80 MJ) Appearance” value [8] was “A”. For the same compound, the “Sunlight exposure (80 MJ) ΔE” value [8] was 0.49, the “Sunlight exposure (80 MJ) Appearance” value [9] was “A” and the “Sunlight exposure (80 MJ) ΔE” value [9] was 0.22. For the same compound, the “Sunlight exposure (80 MJ) Appearance” value [10] was “A”, the “Sunlight exposure (80 MJ) ΔE” value [10] was 0.95 and the “Sunlight exposure (80 MJ) Appearance” value [11] was “A”. The “Sunlight exposure (80 MJ) ΔE” value [11] was 0.32, the “Sunlight exposure (80 MJ) Appearance” value [12] was “A” and the “Sunlight exposure (80 MJ) ΔE” value [12] was 0.07. For the same compound, the “Sunlight exposure (80 MJ) Appearance” value [13] was “A”, the “Sunlight exposure (80 MJ) ΔE” value [13] was 0.98 and the “Sunlight exposure (80 MJ) Appearance” value [14] was “A”. For the same compound, the “Sunlight exposure (80 MJ) ΔE” value [14] was 0.73, the “Sunlight exposure (80 MJ) Appearance” value [15] was “A” and the “Sunlight exposure (80 MJ) ΔE” value [15] was 0.14. The “Sunlight exposure (80 MJ) Appearance” value [16] was “A”, the “Sunlight exposure (80 MJ) ΔE” value [16] was 0.82 and the “Sunlight exposure (80 MJ) Appearance” value [17] was “A”. The “Sunlight exposure (80 MJ) ΔE” value [17] was 0.56, the “Sunlight exposure (80 MJ) Appearance” value [18] was “A” and the “Sunlight exposure (80 MJ) ΔE” value [18] was 0.19. The “Sunlight exposure (80 MJ) Appearance” value [19] was “A”, the “Sunlight exposure (80 MJ) ΔE” value [19] was 0.95 and the “Sunlight exposure (80 MJ) Appearance” value [20] was “A”. For the same compound, the “Sunlight exposure (80 MJ) ΔE” value [20] was 0.71, the “Sunlight exposure (80 MJ) Appearance” value [21] was “A” and the “Sunlight exposure (80 MJ) ΔE” value [21] was 0.45. The “Sunlight exposure (80 MJ) Appearance” value [22] was “A”, the “Sunlight exposure (80 MJ) ΔE” value [22] was 0.59 and the “Sunlight exposure (80 MJ) Appearance” value [23] was “A”. The “Sunlight exposure (80 MJ) ΔE” value [23] was 0.71, the “Sunlight exposure (80 MJ) Appearance” value [24] was “A” and the “Sunlight exposure (80 MJ) ΔE” value [24] was 0.22. The “Sunlight exposure (80 MJ) Appearance” value [25] was “A”, the “Sunlight exposure (80 MJ) ΔE” value [25] was 0.61 and the “Sunlight exposure (80 MJ) Appearance” value [26] was “A”. The “Sunlight exposure (80 MJ) ΔE” value [26] was 0.43, the “Sunlight exposure (80 MJ) Appearance” value [27] was “A” and the “Sunlight exposure (80 MJ) ΔE” value [27] was 0.22. The “Sunlight exposure (80 MJ) Appearance” value [28] was “A”, the “Sunlight exposure (80 MJ) ΔE” value [28] was 0.52 and the “Sunlight exposure (80 MJ) Appearance” value [29] was “A”. The “Sunlight exposure (80 MJ) ΔE” value [29] was 0.37, the “Sunlight exposure (80 MJ) Appearance” value [30] was “A” and the “Sunlight exposure (80 MJ) ΔE” value [30] was 0.12. For the same compound, the “Sunlight exposure (80 MJ) Appearance” value [31] was “A”, the “Sunlight exposure (80 MJ) ΔE” value [31] was 0.22 and the “Sunlight exposure (80 MJ) Appearance” value [32] was “A”. For the same compound, the “Sunlight exposure (80 MJ) ΔE” value [32] was 0.10, the “Sunlight exposure (80 MJ) Appearance” value [33] was “A” and the “Sunlight exposure (80 MJ) ΔE” value [33] was 0.05. For the same compound, the “Sunlight exposure (80 MJ) Appearance” value [34] was “A”, the “Sunlight exposure (80 MJ) ΔE” value [34] was 0.25 and the “Sunlight exposure (80 MJ) Appearance” value [35] was “A”. For the same compound, the “Sunlight exposure (80 MJ) ΔE” value [35] was 0.18, the “Sunlight exposure (80 MJ) Appearance” value [36] was “A” and the “Sunlight exposure (80 MJ) ΔE” value [36] was 0.08. For the same compound, the “change of appearance of the composition” value (summary of Tables 11 to 13) was “small” and the “color difference ΔE” value (summary of Tables 11 to 13) was “very small in comparison with other photostabilizers”.
